Laboratory results taken from patent publication US8486991B2, “Enantiomerically pure phosphoindoles as HIV inhibitors” (Idenix Pharmaceuticals, Inc., priority 2006, dated 2013).
Where two headings read alike, the source gives them in different places. *1 amine or outer side, *2 acyl side, *3 side chain or, on linkers, in order; H or OH if unused. Where a SMILES comes first, the peptide text is derived from it. Bridges are numbered along the chain shown (N, C = ends). Roman numbers before positions name the chains, in order. [ ]: non-standard residue; d: D form. Actinocin(9to1) = Cc1c2oc3c(C)ccc(C(=O)[*:1])c3nc-2c(C(=O)[*:2])c(N)c1=O; NMeV = CN[C@H](C(=O)O)C(C)C; Sar = CNCC(=O)O

Key:
[1] = system: HIV-1 BH10 wild-type virus; assay: CPE / cell protection assay, MT-4 cells, BH10 wild-type; type: cell-based; conditions: Human immunodeficiency virus 1, MT4; Cell Protection Assay tables; unit inferred; read-out: EC50, BH10
Protocol: (§1) The activity of the compounds was also assessed with the same virus and cell type using a different assay readout based on cytopathic effect (CPE).
(§2) MT-4 cells (Source: NIH Catalog #120) were seeded onto 96-well cell culture plates (1×10^4 cells per well in 50 μL).
(§3) The final DMSO concentration in the assay was 0.5% in 120 μL. Cell cultures were then incubated at 37° C./5% CO2 for 4 days. Then, Cell Titer 96 AQueous One Solution Cell Proliferation Assay (Promega) was used to measure cell viability. Briefly, the One Solution Reagent was added directly to culture wells (20 μL/well), incubated for 5 hours, and the absorbance was recorded at 492 nm using the Sunrise Tecan Spectrophotometer.
(§4) The EC50 values were determined from the percent inhibition versus concentration data using a sigmoidal non-linear regression analysis based on four parameters with Tecan Magellan software.

[2] = system: HIV-1 BH10 K103N mutant virus; assay: microbe, parasite or virus in culture; type: cell-based; conditions: Human immunodeficiency virus 1, MT4, read-out: EC50, K103N
Protocol: as §1, §2, §3, §4

[3] = system: CYP3A4 (activation of PXR in DPX2 cells); assay: CYP3A4 induction screen in DPX2 cells; type: cell-based, human; conditions: extent compared with rifampicine, mifepristone, androstanol
From the text: The potential for in vitro induction of CYP3A4 was screened in DPX2 cells. The DPX2 cell line is a derivative of a human hepatocellular carcinoma cell line (HepG2) transformed with the human pregnane x receptor (PXR) and a reporter gene vector containing the enhancer region of CYP3A4. The potential for in vitro induction of CYP1A2 was screened in CYP1A2-DRE cells. The CYP1A2-DRE cell line is a stably transformed HepG2 cells with dioxin response elements (DRE) and reporter gene containing CYP1A2 promoter elements. The extent of CYP3A4 induction was determined by comparing the activation of PXR obtained with test article to that obtained with rifampicine (potent inducer), mifepristone (moderate inducer) and androstanol (weak inducer). The extent of CYP1A2 induction was determined by comparing the activation of the aryl hydrocarbon receptor (AhR) obtained with test article to that obtained with TCDD (potent inducer), omeprazole (moderate inducer), and 2-acetylaminofluorene (weak inducer).

CYP2C9 = CYP2C9 (Homo sapiens, UniProt P11712); assay: Recombinant CYP450 inhibition, Luciferin-H, CYP2C9; type: in vitro ADME; design: from tissue; host or cells: pooled human liver microsomes; conditions: highest concentration tested 10 μM
Protocol: CYP2C9 inhibition was performed by incubating a luminogenic CYP450 substrate Luciferin-H with CYP2C9 and an NADPH regeneration system. Luminescence measured using a Fusion plate reader.

CYP2D6 = CYP2D6 (Homo sapiens, UniProt P10635); assay: Recombinant CYP450 inhibition, fluorometric, CYP2D6; type: in vitro ADME; design: from tissue; host or cells: pooled human liver microsomes; conditions: recombinant human CYP2D6 microsomal protein, read-out: percentage of inhibition at the highest concentration tested, CYP2D6
Protocol: (§5) Compounds were assayed using recombinant human microsomal proteins with fluorometric substrates. Signal was measured with a Fusion plate reader utilizing the appropriate excitation and emission wavelength set to detect the specific metabolite: […]

CYP3A4 = CYP3A4 (Homo sapiens, UniProt P08684); assay: Recombinant CYP450 inhibition, fluorometric, CYP3A4; type: in vitro ADME; design: from tissue; host or cells: pooled human liver microsomes
Protocol: as §5

HIV-2 ROD = HIV-2 ROD WT in H9 cell assay; type: cell-based; conditions: Human immunodeficiency virus 2, H9; Table 18; highest concentration assayed 1.25 μM; read-out: EC50 Values
Protocol: The susceptibility of HIV type 2 ROD in H9 cells to Compound I and Compound III was determined against zidovudine (AZT) as a control.

[4] = target: T1, human DNA polymerase alpha (Homo sapiens, UniProt P09884); assay: Human cellular DNA polymerase alpha assay; type: biochemical
T1 sequence (P09884 1-1462): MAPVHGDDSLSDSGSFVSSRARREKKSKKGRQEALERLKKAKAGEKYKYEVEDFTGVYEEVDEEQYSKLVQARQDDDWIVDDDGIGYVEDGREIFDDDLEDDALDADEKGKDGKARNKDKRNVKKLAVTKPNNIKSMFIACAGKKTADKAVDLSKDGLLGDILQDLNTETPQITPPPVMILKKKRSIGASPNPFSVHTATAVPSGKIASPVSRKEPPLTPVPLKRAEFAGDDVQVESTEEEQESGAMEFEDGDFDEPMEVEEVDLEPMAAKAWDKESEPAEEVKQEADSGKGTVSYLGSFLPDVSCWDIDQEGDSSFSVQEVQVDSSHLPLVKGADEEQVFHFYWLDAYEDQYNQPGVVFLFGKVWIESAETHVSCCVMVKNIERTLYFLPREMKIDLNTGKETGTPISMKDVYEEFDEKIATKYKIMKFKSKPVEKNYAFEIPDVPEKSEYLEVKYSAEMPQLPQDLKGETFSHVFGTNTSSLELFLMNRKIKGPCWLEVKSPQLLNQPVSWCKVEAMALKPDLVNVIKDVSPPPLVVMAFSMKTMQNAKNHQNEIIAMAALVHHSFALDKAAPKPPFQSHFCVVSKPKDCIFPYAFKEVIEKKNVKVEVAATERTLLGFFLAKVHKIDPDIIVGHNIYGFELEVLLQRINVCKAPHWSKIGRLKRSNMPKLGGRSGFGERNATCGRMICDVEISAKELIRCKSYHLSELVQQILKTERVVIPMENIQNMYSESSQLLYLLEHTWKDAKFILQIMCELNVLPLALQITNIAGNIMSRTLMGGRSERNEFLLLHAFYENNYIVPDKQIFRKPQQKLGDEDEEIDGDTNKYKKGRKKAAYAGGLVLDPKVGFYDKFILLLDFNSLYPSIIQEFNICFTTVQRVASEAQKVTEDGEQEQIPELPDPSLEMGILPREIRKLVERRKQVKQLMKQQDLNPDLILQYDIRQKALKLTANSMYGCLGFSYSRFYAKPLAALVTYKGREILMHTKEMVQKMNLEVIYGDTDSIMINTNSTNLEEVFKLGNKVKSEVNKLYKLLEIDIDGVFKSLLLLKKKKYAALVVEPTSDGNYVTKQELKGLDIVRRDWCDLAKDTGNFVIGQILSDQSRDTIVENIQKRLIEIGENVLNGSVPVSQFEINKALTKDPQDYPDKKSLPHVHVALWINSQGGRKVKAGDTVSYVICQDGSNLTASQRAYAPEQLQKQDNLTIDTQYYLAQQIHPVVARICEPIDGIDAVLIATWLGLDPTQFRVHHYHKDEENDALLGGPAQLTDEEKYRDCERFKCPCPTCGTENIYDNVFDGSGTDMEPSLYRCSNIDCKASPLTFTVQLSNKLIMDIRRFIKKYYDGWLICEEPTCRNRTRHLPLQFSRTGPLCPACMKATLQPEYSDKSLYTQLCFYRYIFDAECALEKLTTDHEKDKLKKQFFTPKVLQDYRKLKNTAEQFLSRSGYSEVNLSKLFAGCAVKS
From the text: (§6) HIV RT, like other viral polymerase, shares limited structural homology with the cellular DNA polymerases responsible for normal nuclear and mitochondrial DNA synthesis and repair. This raises the formal possibility that inhibitors of HIV RT might inhibit cellular polymerases, resulting in cellular toxicity. In particular, inhibition of polymerase gamma has the potential to result in mitochondrial toxicity. The ability of Compound I and Compound III to inhibit cellular DNA polymerases was assessed using standard in vitro assays (Table 5).

[5] = target: human DNA polymerase beta (Homo sapiens, UniProt P06746); assay: Human cellular DNA polymerase beta assay; type: biochemical
From the text: as §6

[6] = target: T2, human DNA polymerase gamma (Homo sapiens, UniProt P54098); assay: Human cellular DNA polymerase gamma assay; type: biochemical
T2 sequence (P54098 1-1239): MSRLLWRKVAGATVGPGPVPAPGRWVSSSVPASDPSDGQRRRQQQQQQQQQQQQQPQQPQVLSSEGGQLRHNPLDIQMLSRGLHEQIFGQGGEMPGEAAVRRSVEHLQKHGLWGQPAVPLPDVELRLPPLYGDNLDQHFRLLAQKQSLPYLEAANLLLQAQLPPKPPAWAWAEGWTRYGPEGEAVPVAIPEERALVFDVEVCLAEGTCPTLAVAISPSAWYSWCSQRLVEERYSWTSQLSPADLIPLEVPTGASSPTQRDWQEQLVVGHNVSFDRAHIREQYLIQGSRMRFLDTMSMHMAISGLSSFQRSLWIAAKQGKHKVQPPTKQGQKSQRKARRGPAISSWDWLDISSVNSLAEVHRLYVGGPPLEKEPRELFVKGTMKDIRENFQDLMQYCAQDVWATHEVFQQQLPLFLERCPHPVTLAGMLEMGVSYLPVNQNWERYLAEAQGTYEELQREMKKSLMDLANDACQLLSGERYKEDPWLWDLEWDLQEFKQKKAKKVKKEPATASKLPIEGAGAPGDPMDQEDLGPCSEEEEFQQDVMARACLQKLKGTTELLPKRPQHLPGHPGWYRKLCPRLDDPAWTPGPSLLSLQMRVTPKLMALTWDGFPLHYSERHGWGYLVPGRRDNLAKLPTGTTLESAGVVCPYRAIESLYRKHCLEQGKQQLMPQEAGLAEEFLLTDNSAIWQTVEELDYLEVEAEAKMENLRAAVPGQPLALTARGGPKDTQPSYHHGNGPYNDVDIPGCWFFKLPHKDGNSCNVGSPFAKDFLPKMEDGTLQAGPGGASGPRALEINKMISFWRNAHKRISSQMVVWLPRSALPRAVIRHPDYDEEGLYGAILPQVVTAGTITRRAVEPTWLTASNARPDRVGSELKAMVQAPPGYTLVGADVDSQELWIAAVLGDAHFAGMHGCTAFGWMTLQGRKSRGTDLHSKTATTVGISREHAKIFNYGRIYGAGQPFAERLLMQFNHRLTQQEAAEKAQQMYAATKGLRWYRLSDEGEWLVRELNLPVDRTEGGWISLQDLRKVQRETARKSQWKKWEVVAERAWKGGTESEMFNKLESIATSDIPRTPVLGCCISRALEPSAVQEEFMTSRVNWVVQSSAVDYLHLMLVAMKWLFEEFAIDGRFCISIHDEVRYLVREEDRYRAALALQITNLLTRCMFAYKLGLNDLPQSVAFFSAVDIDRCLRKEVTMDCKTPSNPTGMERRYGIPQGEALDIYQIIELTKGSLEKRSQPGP
From the text: as §6

[7] = system: HIV-1 BH10 wild-type virus; assay: microbe, parasite or virus in culture; type: cell-based; conditions: Human immunodeficiency virus 1, MT4, read-out: EC50, BH10, Example 16 comparative tables; unit inferred; several lines per compound
[8] = system: HIV-1 BH10 K103N mutant virus; assay: microbe, parasite or virus in culture; type: cell-based; conditions: Human immunodeficiency virus 1, MT4, read-out: EC50, K103N, Example 16 comparative tables; unit inferred
[9] = Table 6, N=4, read-out: Mean IC50 Values ± Standard Deviation, DNA Pol Gamma

Sequence of CYP3A4 (P08684 whole entry): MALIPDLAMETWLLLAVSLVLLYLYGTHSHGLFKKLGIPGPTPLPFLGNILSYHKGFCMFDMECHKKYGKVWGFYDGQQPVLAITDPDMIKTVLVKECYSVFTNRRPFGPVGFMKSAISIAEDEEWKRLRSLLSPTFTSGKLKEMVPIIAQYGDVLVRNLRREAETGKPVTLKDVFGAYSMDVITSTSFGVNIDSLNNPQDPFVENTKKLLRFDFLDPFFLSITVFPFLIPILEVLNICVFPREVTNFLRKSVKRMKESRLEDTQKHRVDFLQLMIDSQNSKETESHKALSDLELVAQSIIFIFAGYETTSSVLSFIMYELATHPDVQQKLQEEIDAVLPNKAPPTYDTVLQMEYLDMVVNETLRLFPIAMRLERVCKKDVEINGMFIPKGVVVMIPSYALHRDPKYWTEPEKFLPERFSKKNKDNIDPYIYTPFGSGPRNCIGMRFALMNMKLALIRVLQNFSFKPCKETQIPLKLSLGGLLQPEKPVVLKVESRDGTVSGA
Sequence of CYP2D6 (P10635 whole entry, the tested form may be a part): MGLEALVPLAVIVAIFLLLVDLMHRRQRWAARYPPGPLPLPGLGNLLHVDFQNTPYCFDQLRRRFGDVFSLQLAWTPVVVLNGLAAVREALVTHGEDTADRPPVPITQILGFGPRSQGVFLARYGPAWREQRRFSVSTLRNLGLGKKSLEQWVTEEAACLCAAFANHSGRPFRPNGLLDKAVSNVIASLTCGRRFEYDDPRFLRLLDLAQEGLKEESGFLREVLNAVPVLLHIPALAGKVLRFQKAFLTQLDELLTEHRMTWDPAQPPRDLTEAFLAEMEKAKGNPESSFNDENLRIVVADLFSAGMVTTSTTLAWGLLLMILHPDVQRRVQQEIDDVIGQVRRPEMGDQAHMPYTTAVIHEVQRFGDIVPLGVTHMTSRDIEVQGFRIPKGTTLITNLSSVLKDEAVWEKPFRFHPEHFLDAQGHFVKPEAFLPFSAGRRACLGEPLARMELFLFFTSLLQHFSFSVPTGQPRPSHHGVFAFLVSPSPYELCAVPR
Sequence of CYP2C9 (P11712 whole entry, the tested form may be a part): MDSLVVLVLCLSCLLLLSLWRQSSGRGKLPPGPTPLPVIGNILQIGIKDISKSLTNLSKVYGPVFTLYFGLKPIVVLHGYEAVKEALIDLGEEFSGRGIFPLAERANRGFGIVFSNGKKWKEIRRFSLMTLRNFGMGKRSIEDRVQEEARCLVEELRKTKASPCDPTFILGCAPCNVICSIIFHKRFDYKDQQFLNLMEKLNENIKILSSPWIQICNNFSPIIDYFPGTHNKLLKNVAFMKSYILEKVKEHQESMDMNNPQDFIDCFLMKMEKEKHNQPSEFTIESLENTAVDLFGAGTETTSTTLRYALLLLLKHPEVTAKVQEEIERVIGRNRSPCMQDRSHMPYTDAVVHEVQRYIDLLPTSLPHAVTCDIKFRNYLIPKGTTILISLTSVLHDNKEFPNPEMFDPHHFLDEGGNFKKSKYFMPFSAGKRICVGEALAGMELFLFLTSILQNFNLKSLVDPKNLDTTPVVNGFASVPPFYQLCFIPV

CO[P@@](=O)(c1cc(C)cc(/C=C/C#N)c1)c1c(C(N)=O)[nH]c2ccc(Cl)cc12 [IV, (2-carbamoyl-5-chloro-1H-indol-3-yl)-[3-((E)-2-cyano-vinyl)-5-methyl-phenyl]-(S)-phosphinic acid methyl ester]
EC50 [1]: 0.2 ± 0.1 nM
EC50 [2]: 0.0003 µM
Induction, DPX2 (CYP3A4) [3]: Moderate (n = 1)
IC50 (CYP2C9): 3.38 µM
inhibition at 10 µM (CYP2D6): 29.1%
IC50 (CYP3A4; recombinant, highest concentration tested 10 μM, read-out: IC50, CYP3A4): 2.96 µM

Cc1cn([C@H]2C[C@H](N=[N+]=[N-])[C@@H](CO)O2)c(=O)[nH]c1=O [AZT, zidovudine, reference compound]
EC50 (HIV-2 ROD): 0.162 ± 0.0767 µM

Cc1c2oc3c(C)ccc(C(=O)N[C@@H]4C(=O)N[C@H](C(C)C)C(=O)N5CCC[C@H]5C(=O)N(C)CC(=O)N(C)[C@@H](C(C)C)C(=O)O[C@@H]4C)c3nc-2c(C(=O)N[C@@H]2C(=O)N[C@H](C(C)C)C(=O)N3CCC[C@H]3C(=O)N(C)CC(=O)N(C)[C@@H](C(C)C)C(=O)O[C@@H]2C)c(N)c1=O [Act. D, actinomycin D, reference compound] (I: T[dV]P[Sar][NMeV] / II: T[dV]P[Sar][NMeV]; ester I:1-I:C, II:1-II:C; linker I:N-II:N via Actinocin(9to1))
IC50 ([4]; Table 5, read-out: Average IC50 Values ± Standard Deviation, DNA Pol Alpha): 16.1 ± 11.2 µM
IC50 ([4]; Table 6, N=4, read-out: Mean IC50 Values ± Standard Deviation, DNA Pol Alpha): 16.1 ± 11.2 µM
IC50 ([5]; Table 5, read-out: Average IC50 Values ± Standard Deviation, DNA Pol Beta): 23 ± 10.4 µM
IC50 ([5]; Table 6, N=4, read-out: Mean IC50 Values ± Standard Deviation, DNA Pol Beta): 23 ± 10.4 µM
IC50 ([6]; Table 5, preliminary data from a single experiment, read-out: Average IC50 Values, DNA Pol Gamma): 16.9 µM
IC50 [6, 9]: 11.8 ± 1.9 µM

dideoxycytidine triphosphate [ddCTP, reference compound]
IC50 [6, 9]: 1.5 ± 0.6 µM

CO[P@@](=O)(c1cc(C)cc(/C=C/C#N)c1)c1c(C(N)=O)[nH]c2ccc(Cl)c(F)c12 [Compound II, (2-Carbamoyl-5-chloro-4-fluoro-1H-indol-3-yl)-[3-((E)-2-cyano-vinyl)-5-methyl-phenyl]-(S)-phosphinic acid methyl ester]
EC50 [7]: 192 nM
EC50 [8]: 920 nM
EC50 [1]: 62 ± 19 nM
EC50 [2]: 0.277 ± 0.099 µM
IC50 (CYP3A4): 3.21 µM
